The numbers were not newly measured in US20240317846A1 (priority 2021, published 2024), which cites them from elsewhere.

Like-named read-outs stand apart in the source and are kept apart here. Marks after values point to notes of the source that are not given here.

Series [1] deals with COVID-19. Conditions: cited from earlier work.
Series [2] deals with COVID-19. As to conditions: RECOVERY trial; cited from earlier work.
For series [3], the system named is COVID-19. Conditions: cited from earlier work; for Mean days to discharge: published cohorts; for Median days to discharge: published lopinavir-ritonavir cohort.

For “Otilimab: monoclonal antibody targeting circulating GM-CSF”, the “Subjects alive and free of respiratory failure at 28 days” value in the series with COVID-19 [1] (pre-planned analysis, subjects aged at least 70 years, standard of care 45.9%) was 65.1%. Also, the “Primary endpoint (proportion alive and free of respiratory failure 28 days)” value with COVID-19 [1] (whole population) is “not meet its primary endpoint”.
As for “Tocilizumab: anti-IL6 receptor monoclonal antibody”, in the series with COVID-19 [2], the “Increased likelihood of survival” value was 14%; the “Increased likelihood of survival without IMV” value was 18%; the “Survival, Hazard Ratio” value is reported as 1.14; the “Ventilator-Free Survival, Hazard Ratio” value was 1.18. Further, the “Range of days to discharge” value with COVID-19 [3] (2 patients not discharged) was “(10-19)* days”. In the series with COVID-19 [3], the “Mean days to discharge” value was 13.5 days.
Take “lopinavir and ritonavir [Lopinavir/Ritonavir]”: the “Mean days to discharge” value with COVID-19 [3] is reported as 13 days. For the same substance, the “Median days to discharge” value is given as 13** days in the series with COVID-19 [3] and 13 days with COVID-19 [3] (listed as Lopinavir-Ritonavir).
